Reference: US7947695B2, “5-membered annelated heterocyclic pyrimidines as kinase inhibitors” (Janssen Pharmaceutica NV, priority 2005, dated 2011)

Key:
Format in all cases: biochemical
CDK4/cyclinD1 = CDK4/cyclinD1 (Homo sapiens, UniProt P11802); assay: In vitro filtration assay for CDK4 inhibitory activity (pRb phosphorylation, [33P]-ATP); conditions: GST-pRb substrate, 1 μM unlabeled ATP, 25° C. 45 minutes, read-out: cdk4 filter (pIC50) (converted)
Protocol: (§1) Compounds of the present invention were tested in an in vitro filtration assay assessing CDK4 activity by means of its pRb-phosphorylation activity using [^33P]-ATP as phosphor donor. The radioactive phosphorylated pRb is then captured on filtermats and the incorporated [^33P] quantitated using a phosphorage storage screen.
The CDK4 kinase reaction is performed at 25° C. for 45 minutes in a 96-well microtiterplate. The 25 μl reaction volume contains 50 mM Hepes pH 7.5, 10 mM NaF, 10 mM MgCl2, 1 mM Na3VO4, 1 μM unlabeled ATP, 1 mM DTT, 0.5 μCi AT^33P, 0.76 μg/well GST-pRb, 50 ng CDK4/cyclinD1/well and 0.2% compound in 100% DMSO.
(§2) The reaction is stopped by adding 5 μl of a 3% phosphoric acid solution. 10 μl of the reaction mixture is then spotted onto a Filtermat P30 filter (Wallac) and washed 3 times for 5 min. in 75 mM phosphoric acid and 1 time for 5 min. in methanol prior to drying and quantification on the Typhoon (Amersham) using a phosphorage storage screen.
(§3) For each experiment, controls (containing enzyme (complex) and DMSO without compound), a blank incubation (containing DMSO but no enzyme (complex) or compound) and samples (containing enzyme (complex) and compound dissolved in DMSO) were run in parallel. All compounds tested were dissolved and eventually further diluted in DMSO. […] In each test, the blank value was subtracted from both the control and the sample values. The control sample represented maximal enzyme activity. For each sample, the amount of cpm was expressed as a percentage of the mean cpm value of the controls. When appropriate, IC50-values (concentration of the drug, needed to reduce the enzyme activity to 50% of the control) were computed using linear interpolation between the experimental points just above and below the 50% level. Herein the effects of test compounds are expressed as pIC50 (the negative log value of the IC50-value).

AURORA B = AURORA B (Homo sapiens, UniProt Q96GD4); assay: In vitro filtration assay for AURORA B inhibitory activity; conditions: peptide (C(LRRWSLG)×4), 1 μM unlabeled ATP, 25° C. 40 minutes, read-out: Aurora B see C.3 (pIC50) (converted)
Protocol: as §1, with “AURORA B” for “CDK4”, “substrate-phosphorylation” for “pRb-phosphorylation”, “substrate” for “pRb”
The Aurora-B kinase reaction is performed at 25° C. for 40 minutes in a 96-well microtiterplate. The 25 μl reaction volume contains 60 mM Hepes pH 7.5, 3 mM MgCl2, 3 mM MnCl2, 3 μM Na3VO4, 50 μg/ml PEG20000, 1 μM unlabeled ATP, 1 mM DTT, 0.2 μCi AT^33P, 0.25 μg/well peptide (C(LRRWSLG)×4),100 ng Aurora-B/well and 0.2% compound in 100% DMSO. The reaction is stopped by adding 5 μl of a 3% phosphoric acid solution. 10 μl of the reaction mixture is then spotted onto a Filtermat P30 filter (Wallac) and washed 3 times for 5 min. in 75 mM phosphoric acid and 1 time for 5 min. in methanol prior to drying and quantification on the Typhoon (Amersham) using a phosphorage storage screen.
as §3

AURORA A = target: T1, AURORA A (Homo sapiens, UniProt O14965); assay: In vitro filtration assay for AURORA A inhibitory activity; conditions: Kemptide substrate, 1 μM unlabeled ATP, 25° C. 40 minutes, read-out: Aurora A see C.2 (pIC50) (converted)
T1 sequence (O14965 1-403): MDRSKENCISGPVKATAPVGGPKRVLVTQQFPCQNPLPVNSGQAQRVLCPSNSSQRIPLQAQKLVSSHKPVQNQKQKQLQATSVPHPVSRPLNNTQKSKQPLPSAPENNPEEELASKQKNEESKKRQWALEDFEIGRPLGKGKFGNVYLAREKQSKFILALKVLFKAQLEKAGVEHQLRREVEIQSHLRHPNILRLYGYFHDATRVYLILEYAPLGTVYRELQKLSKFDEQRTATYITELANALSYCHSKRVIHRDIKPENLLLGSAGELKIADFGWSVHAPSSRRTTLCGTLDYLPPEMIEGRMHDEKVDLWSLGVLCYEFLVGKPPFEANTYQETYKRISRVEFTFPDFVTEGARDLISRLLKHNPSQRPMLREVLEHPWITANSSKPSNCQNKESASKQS
Protocol: as §1, with “AURORA A” for “CDK4”, “substrate-phosphorylation” for “pRb-phosphorylation”, “substrate” for “pRb”
The Aurora-A kinase reaction is performed at 25° C. for 40 minutes in a 96-well microtiterplate. The 25 μl reaction volume contains 12 mM MOPS pH 7, 0.4 mM EDTA, 0.002% Brij35, 1% glycerol, 0.02% beta-mercapto-ethanol, 0.2 mg/ml BSA, 1 μM unlabeled ATP, […] [^33P]-ATP, 200 μM Kemptide, 3 ng Aurora A/well and 0.2% compound in 100% DMSO.
as §2, §3

Sequence of CDK4/cyclinD1 (P11802 whole entry): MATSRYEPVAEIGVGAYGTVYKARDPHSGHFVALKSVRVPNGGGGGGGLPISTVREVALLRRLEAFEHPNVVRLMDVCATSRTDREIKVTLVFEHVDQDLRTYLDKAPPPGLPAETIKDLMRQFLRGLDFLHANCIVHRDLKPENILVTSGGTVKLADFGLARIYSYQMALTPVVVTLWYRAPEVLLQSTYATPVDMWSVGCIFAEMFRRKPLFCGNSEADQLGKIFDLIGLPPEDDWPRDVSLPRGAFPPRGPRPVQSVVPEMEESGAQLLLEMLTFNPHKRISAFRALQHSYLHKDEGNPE
Sequence of CDK4/cyclinD1 (P24385 whole entry partner): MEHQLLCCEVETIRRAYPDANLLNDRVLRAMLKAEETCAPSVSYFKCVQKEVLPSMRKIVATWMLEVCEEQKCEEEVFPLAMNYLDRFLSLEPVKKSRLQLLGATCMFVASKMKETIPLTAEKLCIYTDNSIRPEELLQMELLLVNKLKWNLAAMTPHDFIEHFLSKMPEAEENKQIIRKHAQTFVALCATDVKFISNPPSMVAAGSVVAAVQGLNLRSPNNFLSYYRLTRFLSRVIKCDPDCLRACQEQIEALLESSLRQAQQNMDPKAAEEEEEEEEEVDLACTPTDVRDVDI
Sequence of AURORA B (Q96GD4 whole entry): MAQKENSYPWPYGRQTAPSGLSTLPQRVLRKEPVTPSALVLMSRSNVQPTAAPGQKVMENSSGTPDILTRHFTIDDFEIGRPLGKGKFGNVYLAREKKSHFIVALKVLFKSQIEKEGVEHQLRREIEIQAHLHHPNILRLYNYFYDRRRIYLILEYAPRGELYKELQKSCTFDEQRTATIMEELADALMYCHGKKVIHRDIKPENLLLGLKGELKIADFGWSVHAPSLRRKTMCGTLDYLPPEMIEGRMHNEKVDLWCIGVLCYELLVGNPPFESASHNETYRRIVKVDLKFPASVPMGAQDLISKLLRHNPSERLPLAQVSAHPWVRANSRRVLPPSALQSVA

Row | SMILES | IC50 (CDK4/cyclinD1) [nM] | IC50 (AURORA B) [µM] | IC50 (AURORA A) [nM]
1 | OCCN1CCC(NCc2ccc(Nc3ncc4cnn(C5CCCCC5)c4n3)cc2)CC1 [compound 75] | 126 | 1.26 | 1580
2 | CC(C)(C)OC(=O)N1CCC(N(Cc2ccc(Nc3ncc4cnn(C5CCCCC5)c4n3)cc2)C(=O)OC(C)(C)C)CC1 [compound 61] | > 10000 | > 10 | 1260
3 | COCCCN(C(=O)OC(C)(C)C)C1CCN(Cc2ccc(N(C(=O)OC(C)(C)C)c3ncc4cnn(C5CCCCC5)c4n3)cc2)CC1 [compound 46] | > 10000 | > 10 | > 10000
4 | CN(C)CCOC(=O)c1ccc(Nc2ncc3[nH]c(=O)n(C4CCCCC4)c3n2)cc1 [compound 82] | 2000 | > 10 | > 10000
5 | CN1CCC(NCc2ccc(N(C(=O)OC(C)(C)C)c3ncc4cnn([C@H]5C[C@@H]6CC[C@H]5C6)c4n3)cc2)CC1 [compound 68] | 1000 | 7.94 | 6310
6 | CN1CCN(c2ccc(Nc3ncc4cnn([C@H]5C[C@@H]6CC[C@H]5C6)c4n3)cc2)CC1 (single isomer, unassigned) [Co. No. 23] | 5.01 | 0.158 | 100
7 | NS(=O)(=O)N1CCN(Cc2ccc(Nc3ncc4cnn(C5CCCCC5)c4n3)cc2)CC1 [compound 34] | 63.1 | > 10 | 158
8 | c1cc(Nc2ncc3cnn(C4CCOCC4)c3n2)ccc1CNCCN1CCOCC1 [compound 71] | 2510 | > 10 | 5010
9 | OCCN1CCN(Cc2ccc(Nc3ncc4cnn(C5CCCCC5)c4n3)cc2)CC1 [Co. No. 37] | 7.94 | 0.398 | 200
10 | c1ccc(N2CCN(c3ccc(Nc4ncc5cnn(C6CCCCC6)c5n4)cc3)CC2)nc1 [compound 22] | 501 | > 10 | 39.8
11 | CC(=O)N1CCN(c2ccc(Nc3ncc4[nH]c(=O)n(C5CCCCC5)c4n3)cc2)CC1 [compound 80] | 3980 | > 10 | 2510
12 | CC(C)(C)OC(=O)N1CCN(c2ccc(Nc3ncc4cnn(C5CCCCC5)c4n3)cc2)CC1 [compound 25] | 1000 | 3.16 | 100
13 | CN1CCC(NCc2ccc(Nc3ncc4[nH]c(=O)n(C5CCCCC5)c4n3)cc2)CC1 [compound 87] | 3980 | > 10 | > 10000
14 | c1cc(N2CCOCC2)ncc1Nc1ncc2cnn(C3CCCCC3)c2n1 [compound 17] | 20 | > 10 | 794
15 | c1cc(Nc2ncc3cnn(C4CCCCC4)c3n2)ccc1CN1CCOCC1 [compound 33] | 631 | 7.94 | 15.8
16 | O=C(NCCN1CCOCC1)c1ccc(Nc2ncc3cnn(C4CCCCC4)c3n2)cc1 [compound 96] | 631 | 1.26 | 100
17 | CC(C)(C)OC(=O)N(c1ccc(CN2CCOCC2)cc1)c1ncc2cnn(C3CCOCC3)c2n1 [compound 50] | > 10000 | > 10 | > 10000
18 | c1cc(Nc2ncc3cnn([C@H]4C[C@@H]5CC[C@H]4C5)c3n2)ccc1CN1CCOCC1 [compound 52] | 79.4 | 0.316 | 158
19 | c1cc(Nc2ncc3cnn(C4CCCCC4)c3n2)ccc1CNC1CCNCC1 [compound 59] | 15.8 | > 10 | 794

Row | SMILES | IC50 (CDK4/cyclinD1) [nM] | IC50 (AURORA B) [µM] | IC50 (AURORA A) [nM]
20 | CN1CCC(NCc2ccc(Nc3ncc4cnn([C@H]5C[C@@H]6CC[C@H]5C6)c4n3)cc2)CC1 [compound 69] | 25.1 | 1 | 631
21 | CN1CCN(Cc2ccc(Nc3ncc4[nH]c(=O)n(C5CCCCC5)c4n3)cc2)CC1 [compound 79] | 2000 | > 10 | > 10000
22 | CN1CCC(NCc2ccc(Nc3ncc4cnn(C5CCCCC5)c4n3)cc2)CC1 [Co. No. 60] | 7.94 | > 10 | 1580
23 | CN1CCC(N(Cc2ccc(Nc3ncc4cnn(C5CCCCC5)c4n3)cc2)C(=O)OC(C)(C)C)CC1 [compound 62] | 25.1 | 6.31 | 158
24 | CN1CCN(c2ccc(Nc3ncc4cnn(C5CCOCC5)c4n3)cc2)CC1 [compound 27] | 200 | > 10 | 501
25 | O=c1[nH]c2cnc(Nc3ccc(CNC4CCNCC4)cc3)nc2n1C1CCCCC1 [compound 86] | 2510 | > 10 | 5010
26 | OCCN1CCN(c2ccc(Nc3ncc4cnn(C5CCCCC5)c4n3)cc2)CC1 [Co. No. 15] | 10 | > 10 | 631
27 | CC(=O)N1CCN(c2ccc(Nc3ncc4cnn(C5CCCCC5)c4n3)cc2)CC1 [compound 19] | 5010 | > 10 | > 10000
28 | CC(C)(C)OC(=O)N(c1ccc(CN2CCN(CCO)CC2)cc1)c1ncc2cnn(C3CCOCC3)c2n1 [compound 55] | > 10000 | > 10 | > 10000
29 | O=c1[nH]c2cnc(Nc3ccc(S(=O)(=O)N4CCOCC4)cc3)nc2n1C1CCCCC1 [compound 85] | > 10000 | > 10 | 3160
30 | CN1CCN(Cc2ccc(Nc3ncc4cnn([C@H]5C[C@@H]6CC[C@H]5C6)c4n3)cc2)CC1 [compound 40] | 63.1 | 0.398 | 316
31 | O=C(c1ccc(Nc2ncc3cnn(C4CCCCC4)c3n2)cc1)N1CCOCC1 [compound 56] | 25.1 | 3.16 | 126
32 | CN1CCC(NCc2ccc(Nc3ncc4cnn(C5CCOCC5)c4n3)cc2)CC1 [compound 73] | 631 | > 10 | > 10000
33 | OC1CCN(c2ccc(Nc3ncc4cnn(C5CCCCC5)c4n3)cc2)CC1 [compound 20] | 12.6 | > 10 | 501
34 | c1cc(Nc2ncc3cnn([C@H]4C[C@@H]5CC[C@H]4C5)c3n2)ccc1CNCCN1CCOCC1 [compound 65] | 200 | 0.501 | 501
35 | CC(C)(O)CN1CCN(Cc2ccc(Nc3ncc4cnn(C5CCOCC5)c4n3)cc2)CC1 [compound 53] | 501 | 7.94 | > 10000
36 | COCCCN1CCC(NCc2ccc(N(C(=O)OC(C)(C)C)c3ncc4cnn(C5CCCCC5)c4n3)cc2)CC1 [compound 76] | > 10000 | > 10 | > 10000
37 | COCCCN1CCC(NCc2ccc(Nc3ncc4cnn(C5CCCCC5)c4n3)cc2)CC1 [compound 77] | 79.4 | 2 | > 10000
